Measurements from patent US12122833B2, “Combination therapies of HDAC inhibitors and PD-1 inhibitors” (HUYABIO International, LLC, priority 2016, dated 2024).

Tests used:
HDAC 8 = target: T1, HDAC 8 (Homo sapiens, UniProt Q9BY41); details: cited from earlier work
T1 sequence (Q9BY41 1-377): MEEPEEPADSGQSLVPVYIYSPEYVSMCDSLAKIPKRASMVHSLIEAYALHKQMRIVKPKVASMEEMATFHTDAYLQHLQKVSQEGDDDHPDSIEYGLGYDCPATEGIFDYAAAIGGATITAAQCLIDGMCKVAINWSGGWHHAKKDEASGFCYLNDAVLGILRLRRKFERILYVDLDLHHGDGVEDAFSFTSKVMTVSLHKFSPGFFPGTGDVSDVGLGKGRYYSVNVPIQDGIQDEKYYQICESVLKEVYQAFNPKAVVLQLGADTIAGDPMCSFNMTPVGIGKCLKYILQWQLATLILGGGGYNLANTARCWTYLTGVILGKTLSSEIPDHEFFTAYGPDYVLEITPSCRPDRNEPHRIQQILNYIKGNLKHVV

[1] = system: 4T1 murine mammary carcinoma; experiment: Example 4: lung metastatic foci count, orthotopic 4T1 murine mammary carcinoma in BALB/c mice; type: in vivo, mouse; details: day 14; HBI-8000 50 mg/kg p.o. qd×13; anti-PD-1 5 mg/kg i.p. biwk×2; vs vehicle control (35.0±2.17 foci)
Protocol: In this Example 4, antitumor responses induced by HBI-8000, administered alone and in combination with anti-PD-1 RMP1-14 (anti-PD-1) were characterized in the 4T1 murine mammary carcinoma xenograft model in BALB/c mice. The impact of these therapies on lung metastasis was evaluated.
Treatments began on Day (D) 1 in BALB/c mice bearing established 4T1 tumors. HBI-8000 was administered orally (p.o.) and anti-PD-1 was administered intraperitoneally (i.p.), at a single dose level. Test agents were administered alone and in combination with HBI-8000. Control animals received vehicle. The study ended on D14 as the endpoint for metastatic foci was reached. Treatment response was determined based on metastases counts taken from animals remaining on D14.
In Vivo Implantation and Tumor Growth: 4T1 tumor cells were harvested during exponential growth and resuspended in PBS. […] Tumor growth was monitored as the average size of tumors approached the target range of 80-120 mm3. […]
Results were analyzed by counting the lung metastatic foci on D14, the last day of the study. […] Percent inhibition was defined as the difference between the number of metastatic foci of the designated control group and the number of metastatic foci of the drug-treated group, expressed as a percentage of the number of metastatic foci of the designated control group: […]

**Q.** For Nc1cc(F)ccc1NC(=O)c1ccc(CNC(=O)/C=C/c2cccnc2)cc1 [HBI-8000, N-(2-amino-4-fluorophenyl)-4-[[[(2E)-1-oxo-3-(3-pyridinyl)-2-propen-1-yl]amino]methyl]benz amide], which “activity at HDAC 8” value (HDAC 8) is on record?
**A.** has activity

**Q.** What about the “activity at HDAC 8 compared with Entinostat” value (HDAC 8; reported by Ning et al.) of the same molecule?
**A.** more active than Entinostat

**Q.** What about the “inhibition of lung metastatic foci” value [1] of the same molecule?
**A.** −26%
